Experiments:
Type in all cases: cell-based
Proteus vulgaris = assay: MIC, test tube serial dilution, Proteus vulgaris; settings: strain 1017
Klebsiella-Aerobacter = assay: MIC, test tube serial dilution, Klebsiella-Aerobacter
Streptococcus faecalis = assay: MIC, test tube serial dilution, Streptococcus faecalis
Staphylococcus aureus = assay: MIC, test tube serial dilution, Staphylococcus aureus
Escherichia coli = assay: MIC, test tube serial dilution, Escherichia coli
Proteus morganii = assay: MIC, test tube serial dilution, Proteus morganii
Pseudomonas aeruginosa = assay: MIC, test tube serial dilution, Pseudomonas aeruginosa

| MIC (Proteus vulgaris; Table 3) [U/ml] | MIC (Klebsiella-Aerobacter; Table 3, strain 63) [U/ml] | MIC (Klebsiella-Aerobacter; Table 3, strain K 10) [U/ml] | MIC (Streptococcus faecalis; Table 3, ATCC 9790) [U/ml] | MIC (Staphylococcus aureus; Table 3, strain 133) [U/ml] | MIC (Staphylococcus aureus; Table 3, strain 1756E) [U/ml] | MIC (Escherichia coli; Table 3, strain 14) [U/ml] | MIC (Escherichia coli; Table 3, strain 183/58) [U/ml] | MIC (Escherichia coli; Table 3, strain A 261) [U/ml] | MIC (Escherichia coli; Table 3, strain C 165) [U/ml] | MIC (Proteus morganii; Table 3, strain 932) [U/ml] | MIC (Pseudomonas aeruginosa; Table 3, strain F 41) [U/ml] | MIC (Pseudomonas aeruginosa; Table 3, strain Walter) [U/ml] | Compound | other results |
| --- | --- | --- | --- | --- | --- | --- | --- | --- | --- | --- | --- | --- | --- | --- |
| 256 | > 512 | > 512 | > 512 | 16 | 512 | 128 | 256 | > 512 | 512 | 256 | > 512 | > 512 | CC(=O)N1CCN(C(=O)NC(C(=O)N[C@@H]2C(=O)N3[C@@H]2SC(C)(C)[C@@H]3C(=O)O)c2c(Cl)cccc2Cl)C1=O (stereo partly drawn) [Penicillin No. 10 (Table 3), Sodium D,L-α-[(3-acetyl-imidazolidin-2-on-1-yl)carbonylamino]-2,6-dichloro-benzylpenicillin] | – |
| 32 | 128 | 32 | 64 | < 1 | 64 | 4 | 8 | 512 | 16 | 16 | 128 | 64 | CC(=O)N1CCN(C(=O)NC(C(=O)N[C@@H]2C(=O)N3[C@@H]2SC(C)(C)[C@@H]3C(=O)O)c2ccc(Cl)cc2)C1=O (stereo partly drawn) [Penicillin No. 7 (Table 3), Sodium D,L-α-[(3-acetylimidazolidin-2-on-1-yl)-carbonyl-amino]-4-chlorobenzylpenicillin] | – |
| – | – | – | – | – | – | – | – | – | – | – | – | – | CC1(C)S[C@@H]2[C@H](NC(=O)[C@H](NC(=O)N3CCN(C=O)C3=O)c3ccccc3)C(=O)N2[C@H]1C(=O)O [Example 20, Sodium D(-)-α-[(3-formyl-imidazolidin-2-on-1-yl)-carbonylamino]-benzylpenicillin] | MIC (Proteus vulgaris; 24 hours, 37°C): 16 U/ml; MIC (Klebsiella-Aerobacter; in µg/mL (unit assumed)): 32; MIC (Klebsiella-Aerobacter; strain 63, 24 hours, 37°C): 64 U/ml; MIC (Streptococcus faecalis; unit assumed): 32 µg/mL; MIC (Staphylococcus aureus; strain 1756 (BRL 1 756), 24 hours, 37°C): 128 U/ml; MIC (Escherichia coli; strain 183/58, 24 hours, 37°C): 64 U/ml; MIC (Escherichia coli; strain A 261, 24 hours, 37°C): > 256 U/ml; MIC (Proteus morganii; unit assumed): 8 µg/mL; MIC (Pseudomonas aeruginosa; in µg/mL (unit assumed)): 8; MIC (Pseudomonas aeruginosa; strain Walter, 24 hours, 37°C): 16 U/ml |

| Compound | MIC (Proteus vulgaris; Table 3) [U/ml] | MIC (Klebsiella-Aerobacter; Table 3, strain 63) [U/ml] | MIC (Klebsiella-Aerobacter; Table 3, strain K 10) [U/ml] | MIC (Streptococcus faecalis; Table 3, ATCC 9790) [U/ml] | MIC (Staphylococcus aureus; Table 3, strain 133) [U/ml] | MIC (Staphylococcus aureus; Table 3, strain 1756E) [U/ml] | MIC (Escherichia coli; Table 3, strain 14) [U/ml] | MIC (Escherichia coli; Table 3, strain 183/58) [U/ml] | MIC (Escherichia coli; Table 3, strain A 261) [U/ml] | MIC (Escherichia coli; Table 3, strain C 165) [U/ml] | MIC (Proteus morganii; Table 3, strain 932) [U/ml] | MIC (Pseudomonas aeruginosa; Table 3, strain F 41) [U/ml] | MIC (Pseudomonas aeruginosa; Table 3, strain Walter) [U/ml] | other results |
| --- | --- | --- | --- | --- | --- | --- | --- | --- | --- | --- | --- | --- | --- | --- |
| CCS(=O)(=O)N1CCN(C(=O)N[C@@H](C(=O)N[C@@H]2C(=O)N3[C@@H]2SC(C)(C)[C@@H]3C(=O)O)c2ccccc2)C1=O [Penicillin No. 11 (Table 3), Sodium D(-)-α-[(3-ethylsulphonyl-imidazolidin-2-on-1-yl)-carbonylamino]-benzylpenicillin] | 4 | 16 | 16 | 64 | 2 | 128 | < 1 | 2 | 512 | 4 | 16 | 64 | 64 | – |

Reference: patent publication US3983105A, “Penicillins” (Bayer Aktiengesellschaft, priority 1971, dated 1976)
